Like-named read-outs stand apart in the source and are kept apart here.
Experiments:
Test in all cases: cells
Set-up in all cases: species or system NCI-60 human tumour cell lines; NCI-60 one-dose screen at 10 uM, percent growth inhibition versus untreated control cells
[1] = system: LOX IMVI; details: Homo sapiens, LOX IMVI, growth inhibition, one dose
Protocol: (§1) The antiproliferative activity of the target compounds 5a–h was screened against a panel of 60 cancer cell lines according to NCI-guidelines at concentration of 10 μM. The results for each compound (Table 1) were recorded as the percent of growth inhibition of treated cells compared to untreated control cells. […] In addition, 5b recorded significant activity against leukemia cancer cell lines K-562 and MOLT-4, Non-small cell lung cancer cell lines NCI-H322M and NCI-H460, Colon cancer cell lines COLO 205, HCT-15 and HCT-116, CNS cancer cell lines SF-295 and SF-539, Melanoma cancer cell lines LOX IMVI and UACC-62, Ovarian cancer cell lines NCI/ADR-RES, OVCAR-3, and OVCAR-4, Renal cancer cell lines CAKI-1, ACHN, and UO-31, and Breast cancer MCF7 cell line with growth inhibition percentage between 80 to 95. […] The methodology of the NCI anticancer screening has been described in detail elsewhere (https://dtp.cancer.gov/).[52]

[2] = system: IGROV1; details: Homo sapiens, IGROV-1, growth inhibition, one dose
Protocol: as §1

[3] = system: CCRF-CEM; details: Homo sapiens, CCRF-CEM, growth inhibition, one dose
Protocol: as §1

[4] = system: K-562; details: Homo sapiens, K562, growth inhibition, one dose
Protocol: as §1

[5] = system: SR; details: Homo sapiens, SR, growth inhibition, one dose
Protocol: as §1

[6] = system: PC-3; details: Homo sapiens, PC-3, growth inhibition, one dose
Protocol: as §1

[7] = system: UACC-62; details: Homo sapiens, UACC-62, growth inhibition, one dose
Protocol: as §1

[8] = system: MDA-MB-231/ATCC; details: Homo sapiens, MDA-MB-231, growth inhibition, one dose
Protocol: as §1

[9] = system: MOLT-4; details: Homo sapiens, MOLT-4, growth inhibition, one dose
Protocol: as §1

[10] = system: BT-549; details: Homo sapiens, BT-549, growth inhibition, one dose
Protocol: as §1

[11] = system: EKVX; details: Homo sapiens, EKVX, growth inhibition, one dose
Protocol: as §1

[12] = system: SN12C; details: Homo sapiens, SN12C, growth inhibition, one dose
Protocol: as §1

[13] = system: SNB-19; details: Homo sapiens, SNB-19, growth inhibition, one dose
Protocol: as §1

[14] = system: 786-0; details: Homo sapiens, 786-0, growth inhibition, one dose
Protocol: as §1

[15] = system: SK-MEL-28; details: Homo sapiens, SK-MEL-28, growth inhibition, one dose
Protocol: as §1

[16] = system: OVCAR-5; details: Homo sapiens, OVCAR-5, growth inhibition, one dose
Protocol: as §1

[17] = system: HOP-92; details: Homo sapiens, HOP-92, growth inhibition, one dose
Protocol: as §1

[18] = system: A549/ATCC; details: Homo sapiens, A549, growth inhibition, one dose
Protocol: as §1

[19] = read-out: Growth% inhibition / 5d
[20] = read-out: Growth% inhibition / 5a
[21] = read-out: Growth% inhibition / 5b
[22] = read-out: Growth% inhibition / 5h

CN(C)c1ccc(C=NNC(=O)/C=C/C=C/c2ccc3c(c2)OCO3)cc1 (mixture of isomers) [5d, (2E,4E)-5-(Benzo[d][1,3]dioxol-5-yl)-N′-((E/Z)-4-(dimethylamino)-benzylidene)penta-2,4-dienehydrazide]
inhibition at 10 µM [1, 19]: 11.1% | inhibition at 10 µM [2, 19]: 10.1% | inhibition at 10 µM [3, 19]: 20.5% | inhibition at 10 µM [4, 19]: 56.1% | inhibition at 10 µM [5, 19]: 62% | inhibition at 10 µM [6, 19]: 15% | inhibition at 10 µM [7, 19]: 16.1%

O=C(/C=C/C=C/c1ccc2c(c1)OCO2)NN=Cc1ccc(O)cc1 [5a, (2E,4E)-5-(Benzo[d][1,3]dioxol-5-yl)-N′-((E,Z)-4-hydroxybenzylidene)penta-2,4-dienehydrazide]
inhibition at 10 µM [1, 20]: 38.5% | inhibition at 10 µM [2, 20]: 24.7% | inhibition at 10 µM [8, 20]: 17.2% | inhibition at 10 µM [3, 20]: 32.4% | inhibition at 10 µM [9, 20]: 23.5% | inhibition at 10 µM [4, 20]: 58.8% | inhibition at 10 µM [5, 20]: 64% | inhibition at 10 µM [10, 20]: 21.5% | inhibition at 10 µM [6, 20]: 19.8% | inhibition at 10 µM [7, 20]: 28.5%

O=C(/C=C/C=C/c1ccc2c(c1)OCO2)N/N=C/c1ccc(O)cc1O [5b, (2E,4E)-5-(Benzo[d][1,3]dioxol-5-yl)-N′-((E)-2,4-dihydroxybenzylidene)penta-2,4-dienehydrazide]
inhibition at 10 µM [1, 21]: 90.3% | inhibition at 10 µM [2, 21]: 71.1% | inhibition at 10 µM [11, 21]: 79.8% | inhibition at 10 µM [8, 21]: 65.6% | inhibition at 10 µM [3, 21]: 81% | inhibition at 10 µM [12, 21]: 67.2% | inhibition at 10 µM [13, 21]: 50.9% | inhibition at 10 µM [9, 21]: 86.7% | inhibition at 10 µM [14, 21]: 71% | inhibition at 10 µM [4, 21]: 88.4% | inhibition at 10 µM [5, 21]: 78.7% | inhibition at 10 µM [10, 21]: 72.7% | inhibition at 10 µM [15, 21]: 57.9% | inhibition at 10 µM [16, 21]: 57.5% | inhibition at 10 µM [6, 21]: 62% | inhibition at 10 µM [7, 21]: 85.7% | inhibition at 10 µM [17, 21]: 46.6% | inhibition at 10 µM [18, 21]: 63.9%

C/C(=N\NC(=O)/C=C/C=C/c1ccc2c(c1)OCO2)c1ccc(Br)cc1 [5h, (2E,4E)-5-(Benzo[d][1,3]dioxol-5-yl)-N′-((E)-1-(4-bromophenyl)ethylidene)penta-2,4-dienehydrazide]
inhibition at 10 µM [1, 22]: 38.3% | inhibition at 10 µM [2, 22]: 29.7% | inhibition at 10 µM [11, 22]: 25% | inhibition at 10 µM [8, 22]: 21% | inhibition at 10 µM [3, 22]: 44.3% | inhibition at 10 µM [12, 22]: 12.4% | inhibition at 10 µM [13, 22]: 14.5% | inhibition at 10 µM [9, 22]: 25.3% | inhibition at 10 µM [14, 22]: 14.6% | inhibition at 10 µM [4, 22]: 40.1% | inhibition at 10 µM [5, 22]: 93.3% | inhibition at 10 µM [15, 22]: 14.2% | inhibition at 10 µM [16, 22]: 10.7% | inhibition at 10 µM [6, 22]: 30.9% | inhibition at 10 µM [7, 22]: 28.5% | inhibition at 10 µM [17, 22]: 11.5% | inhibition at 10 µM [18, 22]: 12.5%
